{"source": "patent US10624891B2", "about": "“Method of diagnosing and treating skin necroptosis disease comprising RIP3-MLKL pathway blocker” (Ajou University Industry-Academic Cooperation Foundation, priority 2015, dated 2020)", "key": {"SNP-induced cell death": {"system": "SNP-induced cell death", "assay": "SNP-induced cell death with ROS scavenger or MAPK pathway inhibitors", "format": "cell-based", "conditions": "pretreatment or treatment with inhibitor", "source_text": "However, as shown in FIGS. 11A and 11B, in cells pretreated with NAC having ROS scavenging ability, SNP-induced cell death was inhibited similarly in Nec-1 treated group (FIG. 11A). From this, it was confirmed again that ROS is associated with SNP-induced cell death. Further, SNP-induced cell death was inhibited by treatment with JNK inhibitor […] (SP), p38 inhibitor sB202190 (SB), and MEK, upstream of ERK, inhibitor PD98059 (PD) (FIG. 11B)."}, "HaCaT cells": {"system": "HaCaT cells", "assay": "SNP-induced cell death in HaCaT cells, MTT assay and phase-contrast microscopy", "format": "cell-based, human", "conditions": "for SNP-induced cell death (cell viability, MTT assay): pretreated with 80 μM of Nec-1 and/or 20 μM of zVAD for 1 hour, followed by SNP", "experimental": "Whether SNP-induced cell death is improved by […] necrostatin-1 (Nec-1), and combination treatment of zVAD and Nec-1 was examined in HaCaT cells using MTT assay and phase-contrast microscopy. Cells were pretreated with 80 μM of Nec-1 and/or 20 μM of zVAD for 1 hour, followed by SNP treatment."}, "HaCaT and HEKn": {"system": "HaCaT and HEKn", "assay": "TNFα-induced necroptosis stimuli (TCZ or TSZ) in keratinocytes", "format": "cell-based, human", "conditions": "TNFα + zVAD + cyclohexamide or SMAC mimetic", "source_text": "The immortal human keratinocyte line HaCaT and primary human epidermal keratinocyte isolated from neonatal foreskin (HEKn) responded to prototypical necroptosis stimuli induced by TNFα (TNFα[…]+zVAD+cyclohexamide or SMAC mimetic; also referred to herein as TCZ or TSZ). […] Additionally, from a knockout model, it was confirmed whether RIP3 and RIP1 affect TNF-induced cell death via necroptosis."}, "[1]": {"system": "RIP3 overexpressing cells", "assay": "MLKL phosphorylation inhibition in RIP3 overexpressing cells", "format": "cell-based, human", "source_text": "As shown in FIGS. 17A and 17B, the basal phosphorylation of MLKL in RIP3 overexpressing cells, and SNP-induced p-MLKL were eliminated by an RIP3 inhibitor dabrafenib (FIG. 17A)."}}, "note": "Read-outs that look alike come from different tables or passages of the source. Where a SMILES comes first, the peptide text is derived from it. The star is where a group is joined. Cbz = O=C(OCc1ccccc1)*; CH2F = FC*"}
{"smiles": "COc1cccc(-c2cc(=O)c3ccccc3o2)c1N", "note": "[PD98059]", "values": [{"measurement": "SNP-induced cell death", "setting": "SNP-induced cell death", "result": "inhibited"}]}
{"smiles": "CC(NC(=O)C(NC(=O)OCc1ccccc1)C(C)C)C(=O)NC(CC(=O)O)C(=O)CF", "note": "(stereo not drawn) [zVAD] (Cbz-Val-Ala-Asp-CH2F; configuration not given here)", "values": [{"measurement": "SNP-induced cell death (cell viability, MTT assay)", "setting": "HaCaT cells", "result": "reduced"}, {"measurement": "TNF-induced cell death", "setting": "HaCaT and HEKn", "result": "did not prevent"}, {"measurement": "caspase-3 and PARP processing", "setting": "HaCaT and HEKn", "result": "completely blocked"}]}
{"smiles": "CC(C)(C)c1nc(-c2cccc(NS(=O)(=O)c3c(F)cccc3F)c2F)c(-c2ccnc(N)n2)s1", "note": "[dabrafenib]", "values": [{"measurement": "protection from acute SNP cytotoxicity / SNP-induced cell death", "setting": "HEKn cells", "result": "protected HEKn cells from acute SNP cytotoxicity more effectively than zVAD"}, {"measurement": "SNP-induced p-MLKL", "setting": "[1]; SNP treated", "result": "eliminated"}, {"measurement": "basal phosphorylation of MLKL", "setting": "[1]; no SNP", "result": "eliminated"}]}
{"smiles": "CC(=O)N[C@@H](CS)C(=O)O", "note": "[NAC]", "values": [{"measurement": "SNP-induced cell death", "setting": "SNP-induced cell death", "result": "inhibited"}]}
{"smiles": "CN1C(=O)C(Cc2c[nH]c3ccccc23)NC1=S", "note": "(stereo not drawn) [Nec-1, necrostatin-1]", "values": [{"measurement": "protection from acute SNP cytotoxicity / SNP-induced cell death", "setting": "HEKn cells; HEKn cells", "result": "protected HEKn cells from acute SNP cytotoxicity more effectively than zVAD"}, {"measurement": "SNP-induced cell death (phase-contrast microscopy and Annexin-V staining)", "setting": "HaCaT cells", "result": "inhibited"}, {"measurement": "SNP-induced cell death (cell viability, MTT assay)", "setting": "HaCaT cells", "result": "reduced"}, {"measurement": "SNP-induced cell death", "setting": "SNP-induced cell death", "result": "inhibited"}]}
{"smiles": "O=C1c2ccccc2-c2n[nH]c3cccc1c23", "note": "[SP420119]", "values": [{"measurement": "SNP-induced cell death", "setting": "SNP-induced cell death", "result": "inhibited"}]}
{"smiles": "COc1nccnc1NS(=O)(=O)c1ccc(NC(=O)/C=C/c2ccc([N+](=O)[O-])s2)cc1", "note": "[NSA, necrosulfonamide]", "values": [{"measurement": "protection from acute SNP cytotoxicity / SNP-induced cell death", "setting": "HEKn cells; HEKn cells", "result": "protected HEKn cells from acute SNP cytotoxicity more effectively than zVAD"}]}
{"smiles": "Oc1ccc(-c2nc(-c3ccncc3)c(-c3ccc(F)cc3)[nH]2)cc1", "note": "[sB202190]", "values": [{"measurement": "SNP-induced cell death", "setting": "SNP-induced cell death", "result": "inhibited"}]}
